Here are results for 29 compounds from ChEMBL document CHEMBL4483862, “Open-source discovery of chemical leads for next-generation chemoprotective antimalarials” (2018).

For the assay, the system named is Plasmodium berghei. In words: Luciferase/luciferin-expressing antifolate-resistant parasites were used to infect a culture of HepG2 cells that were pre-incubated with compounds. Infected hepatocytes emit light due to the luciferase reaction. Assay results are presented as the percent inhibition of light emission compared to control. […]. Format: functional. Particulars: sporozoite; for IC90: read-out: LUCIFERASE INFECTION ASSAY - IC90.

Structures are written as SMILES. Some results are limits rather than exact numbers.

`O=C1C=CC(=O)N1c1ccc(Oc2ccccc2)cc1`: the 90% effect concentration (IC90) is over 12.4 µM. Further, the half-inhibitory concentration (IC50) (FFLUC_HILL_SLOPE 1.06, FFLUC_R_SQUARED 0.54, read-out: LUCIFERASE INFECTION ASSAY - IC50) was over 12.4 µM.
Regarding `O=[N+]([O-])c1ccccc1NC(=S)N/N=C/c1ccc(O)c(O)c1`, the IC90 worked out at 8.44 µM. Further, the IC50 (FFLUC_HILL_SLOPE 1.09, FFLUC_R_SQUARED 0.362, HEPG2TOX_HILL_SLOPE 7.32, HEPG2TOX_R_SQUARED 0.0511, PBLUC_HILL_SLOPE 3.36, PBLUC_R_SQUARED 0.569, read-out: LUCIFERASE INFECTION ASSAY - IC50) came out at 4.39 µM.
Consider `Cc1ccc(OC(=O)c2ccc(C(C)(C)C)cc2)c(NC(=O)c2ccc(C(C)(C)C)cc2)c1`, for which the IC90 is over 7.44 µM. Further, where the note is “FFLUC_HILL_SLOPE 1.14, FFLUC_R_SQUARED 0.535, PBLUC_HILL_SLOPE 1.18, PBLUC_R_SQUARED 0.716, read-out: LUCIFERASE INFECTION ASSAY - IC50”, the concentration for half-maximal inhibition (IC50) turned out to be 1.43 µM.
For the compound `CN(/N=C/c1cc(Cl)cc(Cl)c1O)c1ccc([N+](=O)[O-])cn1`, the IC90 was over 9.67 µM. Also, the half-maximal inhibitory concentration (IC50) (FFLUC_HILL_SLOPE 1.05, FFLUC_R_SQUARED 0.5, read-out: LUCIFERASE INFECTION ASSAY - IC50) is over 9.67 µM.
As to `O=C1C(=C2SCCCS2)CC/C1=C\c1ccccc1`, the IC90 was 5.73 µM. Moreover, for the setting “FFLUC_HILL_SLOPE 1.05, FFLUC_R_SQUARED 0.81, PBLUC_HILL_SLOPE 0.851, PBLUC_R_SQUARED 0.668, read-out: LUCIFERASE INFECTION ASSAY - IC50”, the IC50 worked out at 0.433 µM.
With `CCOC(=O)c1c(C)[nH]c(-c2csc(/C(C#N)=C/c3ccc[nH]3)n2)c1C`, the 90% effect concentration (IC90) is over 10 µM. Besides, the IC50 (FFLUC_HILL_SLOPE 1.13, FFLUC_R_SQUARED 0.248, HEPG2TOX_HILL_SLOPE 11.9, HEPG2TOX_R_SQUARED 0.816, PBLUC_HILL_SLOPE 50.7, PBLUC_R_SQUARED 0.357, read-out: LUCIFERASE INFECTION ASSAY - IC50) was 9.63 µM.
For `Cc1c(-c2nc3ncc(Br)cc3[nH]2)cc(C#N)n1C`, the IC90 was determined as 9.96 µM. The IC50 (FFLUC_HILL_SLOPE 1.06, FFLUC_R_SQUARED 0.775, HEPG2TOX_HILL_SLOPE 12.7, HEPG2TOX_R_SQUARED 0.745, PBLUC_HILL_SLOPE 2.08, PBLUC_R_SQUARED 0.626, read-out: LUCIFERASE INFECTION ASSAY - IC50) came to 3.46 µM.
For `Oc1cccc(-c2cnc3cnc(-c4ccc(CNc5ccccc5)cc4)cn23)c1`, the IC90 was 2.92 µM. The IC50 (FFLUC_HILL_SLOPE 1.01, FFLUC_R_SQUARED 0.213, PBLUC_HILL_SLOPE 39.2, PBLUC_R_SQUARED 0.71, read-out: LUCIFERASE INFECTION ASSAY - IC50) came out at 2.76 µM.
In the case of `Cc1nc2ccccc2nc1SCC(=O)c1ccc(NS(C)(=O)=O)cc1`, the IC90 is over 10 µM. Under “FFLUC_HILL_SLOPE 1.05, FFLUC_R_SQUARED 0.177, HEPG2TOX_HILL_SLOPE 1.12, HEPG2TOX_R_SQUARED 0.682, read-out: LUCIFERASE INFECTION ASSAY - IC50”, the IC50 is over 10 µM.
Consider `Cc1cc(C)cc(Nc2nc(=O)c(Cc3ccc(Cl)cc3)n[nH]2)c1`, for which the IC90 was determined as 8.45 µM. The half-maximal inhibitory concentration (IC50) (FFLUC_HILL_SLOPE 1.04, FFLUC_R_SQUARED 0.238, PBLUC_HILL_SLOPE 2.61, PBLUC_R_SQUARED 0.421, read-out: LUCIFERASE INFECTION ASSAY - IC50) amounted to 3.64 µM.
Regarding `Cn1c(NCC2CC2)nc2cnc(-c3ccc4ccccc4c3)cc21`, the concentration for an effect of 90% (IC90) amounted to 2.07 µM. Further, the IC50 (FFLUC_HILL_SLOPE 1.05, FFLUC_R_SQUARED 0.583, HEPG2TOX_HILL_SLOPE 31.1, HEPG2TOX_R_SQUARED 0.421, PBLUC_HILL_SLOPE 0.605, PBLUC_R_SQUARED 0.735, read-out: LUCIFERASE INFECTION ASSAY - IC50) worked out at 0.0548 µM.
As to `CCCn1c(SCC(=O)NCC23CC4CC(CC(C4)C2)C3)nc2cc(Cl)ccc2c1=O`, the IC90 is over 10 µM. The 50% inhibitory concentration (IC50) (FFLUC_HILL_SLOPE 1.09, FFLUC_R_SQUARED 0.071, read-out: LUCIFERASE INFECTION ASSAY - IC50) was over 10 µM.
`COc1ccc(NS(=O)(=O)c2c(C)c(C)c(C)c(C)c2C)cc1O`: the 90% effect concentration (IC90) is 3.8 µM. Besides, the IC50 (FFLUC_HILL_SLOPE 1.05, FFLUC_R_SQUARED 0.782, HEPG2TOX_HILL_SLOPE 1.26, HEPG2TOX_R_SQUARED 0.985, PBLUC_HILL_SLOPE 23, PBLUC_R_SQUARED 0.188, read-out: LUCIFERASE INFECTION ASSAY - IC50) came to 3.45 µM.
As to `CCN(CC)c1ccc(S(=O)(=O)N2CCCCC2)cc1NC(=O)c1ccc2c(c1)nnn2CC`, the 90% effect concentration (IC90) is over 10 µM. Under “FFLUC_HILL_SLOPE 1.06, FFLUC_R_SQUARED 0.385, read-out: LUCIFERASE INFECTION ASSAY - IC50”, the half-inhibitory concentration (IC50) is over 10 µM.
Consider `NS(=O)(=O)c1ccc(CCNc2nn3c(-c4cccc(Cl)c4)cnc3s2)cc1`, for which the concentration for an effect of 90% (IC90) was over 7.6 µM. Further, the IC50 (FFLUC_HILL_SLOPE 1.14, FFLUC_R_SQUARED 0.295, read-out: LUCIFERASE INFECTION ASSAY - IC50) was over 7.6 µM.
As to `OC1CCN(c2nn3cc(-c4ccccc4)nc3s2)CC1`, the IC90 was determined as 0.954 µM. Moreover, where the note is “FFLUC_HILL_SLOPE 1.04, FFLUC_R_SQUARED 0.865, PBLUC_HILL_SLOPE 0.617, PBLUC_R_SQUARED 0.864, read-out: LUCIFERASE INFECTION ASSAY - IC50”, the half-inhibitory concentration (IC50) turned out to be 0.0272 µM.
With `CC(C)(C)c1ccc(NC(=O)c2cnccn2)cc1`, the concentration for an effect of 90% (IC90) was found to be 8.29 µM. The IC50 (FFLUC_HILL_SLOPE 1.15, FFLUC_R_SQUARED 0.77, PBLUC_HILL_SLOPE 0.39, PBLUC_R_SQUARED 0.583, read-out: LUCIFERASE INFECTION ASSAY - IC50) was 0.0298 µM.
For `CCOC(=O)Cn1c(=O)c2c3c(sc2n(Cc2ccccc2)c1=O)CCCC3`, the IC90 was over 8.28 µM. Besides, the IC50 (FFLUC_HILL_SLOPE 1.15, FFLUC_R_SQUARED 0.544, PBLUC_HILL_SLOPE 1.19, PBLUC_R_SQUARED 0.498, read-out: LUCIFERASE INFECTION ASSAY - IC50) worked out at 3.9 µM.
As for `O=C(Nc1ccc(N2CCCC2)cn1)C1CC=CCC1` (stereo not drawn), the 90% effect concentration (IC90) is 0.636 µM. Further, the concentration for half-maximal inhibition (IC50) (FFLUC_HILL_SLOPE 1.03, FFLUC_R_SQUARED 0.671, HEPG2TOX_HILL_SLOPE 1.03, HEPG2TOX_R_SQUARED 0.932, PBLUC_HILL_SLOPE 1.27, PBLUC_R_SQUARED 0.726, read-out: LUCIFERASE INFECTION ASSAY - IC50) came out at 0.112 µM.
`O=C(Nc1nc2ccc(OC(F)(F)F)cc2s1)c1cnccn1`: the IC90 was determined as 3.41 µM. The IC50 (FFLUC_HILL_SLOPE 1.04, FFLUC_R_SQUARED 0.266, PBLUC_HILL_SLOPE 101, PBLUC_R_SQUARED 0.2, read-out: LUCIFERASE INFECTION ASSAY - IC50) worked out at 3.33 µM.
As to `Cc1cc(/C=C/C(=O)Nc2ccc(S(=O)(=O)NC3=NCCCCC3)cc2)c(C)n1-c1ccccc1`, the IC90 came out at 6.38 µM. The IC50 (FFLUC_HILL_SLOPE 1.16, FFLUC_R_SQUARED 0.166, PBLUC_HILL_SLOPE 1.89, PBLUC_R_SQUARED 0.7, read-out: LUCIFERASE INFECTION ASSAY - IC50) was found to be 2 µM.
Regarding `O=C1C(=O)N(Cc2ccccc2F)c2c1cccc2C(F)(F)F`, the IC90 is over 10.2 µM. Further, the half-maximal inhibitory concentration (IC50) (FFLUC_HILL_SLOPE 1.03, FFLUC_R_SQUARED 0.0461, HEPG2TOX_HILL_SLOPE 15.2, HEPG2TOX_R_SQUARED 0.946, PBLUC_HILL_SLOPE 1.65, PBLUC_R_SQUARED 0.631, read-out: LUCIFERASE INFECTION ASSAY - IC50) was 2.98 µM.
Regarding `Cc1csc(C(C#N)C(=O)CSc2nc(-c3ccc(Br)cc3)nc3ccccc23)n1` (stereo not drawn), the IC90 is over 10 µM. Besides, under “FFLUC_HILL_SLOPE 1.1, FFLUC_R_SQUARED 0.67, read-out: LUCIFERASE INFECTION ASSAY - IC50”, the half-inhibitory concentration (IC50) is over 10 µM.
Take `CN(Cc1ccc(C(F)(F)F)cc1)C(=O)c1cc(Br)ccc1O`: the concentration for an effect of 90% (IC90) is over 10 µM. Moreover, the IC50 (FFLUC_HILL_SLOPE 1.16, FFLUC_R_SQUARED 0.0567, read-out: LUCIFERASE INFECTION ASSAY - IC50) is over 10 µM.
With `CN1CCN(C(c2ccccn2)c2c(-c3ccccc3)n(O)c3ccccc23)CC1` (stereo not drawn), the 90% effect concentration (IC90) was over 10 µM. The concentration for half-maximal inhibition (IC50) (FFLUC_HILL_SLOPE 1.05, FFLUC_R_SQUARED 0.622, read-out: LUCIFERASE INFECTION ASSAY - IC50) is over 10 µM.
As for `O=S(=O)(Nc1csc(C(F)(F)F)c1-c1ccccc1)c1cc(Cl)c(Cl)s1`, the 90% effect concentration (IC90) turned out to be 6.91 µM. Also, the concentration for half-maximal inhibition (IC50) (FFLUC_HILL_SLOPE 1.1, FFLUC_R_SQUARED 0.492, HEPG2TOX_HILL_SLOPE 2.51, HEPG2TOX_R_SQUARED 0.937, PBLUC_HILL_SLOPE 4.37, PBLUC_R_SQUARED 0.518, read-out: LUCIFERASE INFECTION ASSAY - IC50) came out at 4.18 µM.
As to `Cc1ccc(-c2nnc(SCC(=O)c3c(N)n(C)c(=O)n(C)c3=O)nc2-c2ccc(C)cc2)cc1`, the 90% effect concentration (IC90) is over 10 µM. Besides, the IC50 (FFLUC_HILL_SLOPE 1.03, FFLUC_R_SQUARED 0.511, read-out: LUCIFERASE INFECTION ASSAY - IC50) is over 10 µM.
For the compound `O=C(Nc1cc(Cl)cc(Cl)c1)Nc1cc(-c2cccs2)n[nH]1`, the IC90 was 9.3 µM. Moreover, under “FFLUC_HILL_SLOPE 1.15, FFLUC_R_SQUARED 0.0672, PBLUC_HILL_SLOPE 14.1, PBLUC_R_SQUARED 0.219, read-out: LUCIFERASE INFECTION ASSAY - IC50”, the IC50 came to 7.95 µM.
For the compound `Cc1cccc2nc(C(=O)Nc3ccc4c(c3)nc3n4CCCCC3)cn12`, the concentration for an effect of 90% (IC90) is over 10 µM. The 50% inhibitory concentration (IC50) (FFLUC_HILL_SLOPE 1.04, FFLUC_R_SQUARED 0.903, PBLUC_HILL_SLOPE 0.368, PBLUC_R_SQUARED 0.555, read-out: LUCIFERASE INFECTION ASSAY - IC50) was determined as 0.159 µM.

The term IC50 denotes the concentration that gives 50% inhibition. As usually defined, the IC90 is the concentration needed for an effect of 90%.
